The experiment concerns Rice Blast. Also noted: species or system Magnaporthe oryzae. The note with it: in vivo.

As to `COc1ccnc(C(=O)N[C@H]2COC(=O)[C@H](Cc3ccccc3)[C@@H](OC(=O)C(C)C)[C@H](C)OC2=O)c1OCOC(=O)C(C)C` [Compound I], the “Flag Leaf (% INFECT)” value is “B (key: A: 1-25; B: 26-50; C: 51-75; D: 76-100; E: Not tested)”, the “Panicles (% INCID)” value is reported as “B (key: A: 1-25; B: 26-50; C: 51-75; D: 76-100; E: Not tested)” and the “Panicles (% INFECT)” value was “B (key: A: 1-25; B: 26-50; C: 51-75; D: 76-100; E: Not tested)”.

(Values after patent publication US20180055050A1 (priority 2016, published 2018).)
